Experimental findings from patent US12528815B2, “5-amino-8-(4-pyridyl)-[1,2,4]triazolo[4,3-c]pyrimidin-3-one compounds for use against cancer” (Nxera Pharma UK Limited, priority 2020, dated 2026) are described below.

Test [1] deals with T1, human adenosine A1 receptor (Homo sapiens, UniProt P30542).
T1 construct: expressed in transfected cells; host or cells: HEK293 cells infected with BacMam (the same paragraph also labels the preparation CHO-hA1)
T1 sequence (P30542 1-326): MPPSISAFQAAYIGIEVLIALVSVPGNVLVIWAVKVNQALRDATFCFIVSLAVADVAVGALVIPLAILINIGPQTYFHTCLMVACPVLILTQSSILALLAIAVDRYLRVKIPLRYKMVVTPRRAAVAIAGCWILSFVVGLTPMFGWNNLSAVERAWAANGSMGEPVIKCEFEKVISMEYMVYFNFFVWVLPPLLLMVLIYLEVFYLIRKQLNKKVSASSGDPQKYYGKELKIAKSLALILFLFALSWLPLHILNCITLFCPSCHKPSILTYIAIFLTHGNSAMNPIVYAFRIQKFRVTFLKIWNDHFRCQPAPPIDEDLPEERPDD
As to the kind of experiment: Inhibition binding assay, human adenosine A1 receptor membranes, [3H]DPCPX. The settings on record: 1 nM [3H]DPCPX, 25° C., 1 h; IC50 converted to Ki with Cheng-Prusoff; read-out: A1 pKi (converted). A digest of the protocol:
(§1)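 Membranes from BacMam-infected HEK293 cells (0.2 μg A2A, 1.4 μg A1) incubated 1 h at 25° C with test compound and 1 nM [3H]ZM241385 (A2A; 50 mM Tris-HCl pH 7.4) or [3H]DPCPX (A1; plus 100 mM NaCl, 10 mM MgCl2). Nonspecific: 1 μM CGS15943 or DPCPX. Filtration, scintillation; IC50 converted to Ki via Cheng-Prusoff.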

For test [2], the target named is T2, human adenosine A2A receptor (Homo sapiens, UniProt P29274).
T2 construct: expressed in transfected cells; host or cells: HEK293 cells infected with BacMam
As to the kind of experiment: Inhibition binding assay, human adenosine A2A receptor membranes, [3H]ZM241385. The following applies: 1 nM [3H]ZM241385, HEK293-hA2A membranes, 25° C., 1 h; IC50 converted to Ki with Cheng-Prusoff; read-out: A2A pKi (converted). A digest of the protocol:
as §1

T2 sequence (P29274 whole entry): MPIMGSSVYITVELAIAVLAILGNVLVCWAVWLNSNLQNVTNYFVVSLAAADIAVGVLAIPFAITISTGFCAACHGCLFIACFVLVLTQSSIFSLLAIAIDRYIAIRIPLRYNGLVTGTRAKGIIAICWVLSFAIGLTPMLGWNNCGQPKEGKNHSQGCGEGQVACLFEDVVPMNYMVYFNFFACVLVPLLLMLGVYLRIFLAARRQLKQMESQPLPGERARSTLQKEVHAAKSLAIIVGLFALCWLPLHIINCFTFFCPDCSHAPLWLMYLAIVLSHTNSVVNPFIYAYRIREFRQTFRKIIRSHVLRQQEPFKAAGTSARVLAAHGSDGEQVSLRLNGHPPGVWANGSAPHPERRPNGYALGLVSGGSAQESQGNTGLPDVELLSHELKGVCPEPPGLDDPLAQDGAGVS

On to `CCC(c1ccc(F)cn1)n1nc2c(-c3cc(C)nc(CO)c3)c(-c3ccccc3)nc(N)n2c1=O` (single isomer, unassigned) [1-46 iso-2, 5-amino-2-[1-(5-fluoro-2-pyridyl)propyl]-8-[2-(hydroxymethyl)-6-methyl-4-pyridyl]-7-phenyl-[1,2,4]triazolo[4,3-c]pyrimidin-3-one], for which the Ki was greater than 2510 nM in test [1] and 100 nM in test [2].

For `Cc1cc(-c2c(-c3ccccc3)nc(N)n3c(=O)n(Cc4ccncc4)nc23)cc(C)n1` [Example 1-12, 5-amino-8-(2,6-dimethyl-4-pyridyl)-7-phenyl-2-(4-pyridylmethyl)-[1,2,4]triazolo[4,3-c]pyrimidin-3-one], the Ki in test [1] is 794 nM; in test [2], 10 nM.

On to `CCC(c1ccc(F)cn1)n1nc2c(-c3cc(C)nc(CO)c3)c(-c3ccccc3)nc(N)n2c1=O` (single isomer, unassigned) [1-46 iso-1, 5-amino-2-[1-(5-fluoro-2-pyridyl)propyl]-8-[2-(hydroxymethyl)-6-methyl-4-pyridyl]-7-phenyl-[1,2,4]triazolo[4,3-c]pyrimidin-3-one], for which the Ki in test [1] was greater than 3160 nM; in test [2], 398 nM.

With `Cc1cc(-c2c(-c3ccccc3)nc(N)n3c(=O)n(Cc4ccc(F)cn4)nc23)cc(Cl)n1` [Example 1-76, 5-amino-8-(2-chloro-6-methyl-4-pyridyl)-2-[(5-fluoro-2-pyridyl)methyl]-7-phenyl-[1,2,4]triazolo[4,3-c]pyrimidin-3-one], the Ki was 79.4 nM in test [1] and 0.126 nM in test [2].

Regarding `Cc1cc(-c2c(-c3ccc(F)cc3)nc(N)n3c(=O)n(CCN4CCCCC4)nc23)cc(Cl)n1` [Example 2-105, 5-amino-8-(2-chloro-6-methyl-4-pyridyl)-7-(4-fluorophenyl)-2-[2-(1-piperidyl)ethyl]-[1,2,4]triazolo[4,3-c]pyrimidin-3-one], the Ki in test [1] was greater than 2510 nM; in test [2], 31.6 nM.

Regarding `Cc1cc(-c2c(-c3ccccc3)nc(N)n3c(=O)n(CCc4ccccc4)nc23)cc(N2CCC2)n1` [Example 1-90, 5-amino-8-[2-(azetidin-1-yl)-6-methyl-4-pyridyl]-7-phenyl-2-(2-phenylethyl)-[1,2,4]triazolo[4,3-c]pyrimidin-3-one], the Ki in test [1] was 398 nM; in test [2] it was 12.6 nM.

As to `Cc1cc(-c2c(-c3ccccc3)nc(N)n3c(=O)n(Cc4ccc(F)cn4)nc23)cc(O)n1` [Example 1-74, 5-amino-2-[(5-fluoro-2-pyridyl)methyl]-8-(2-hydroxy-6-methyl-4-pyridyl)-7-phenyl-[1,2,4]triazolo[4,3-c]pyrimidin-3-one], the values for the Ki in test [1] and in test [2] were greater than 3160 nM and 316 nM, respectively.

For `Cc1cc(-c2c(-c3ccc(F)cc3)nc(N)n3c(=O)n(CCC(F)(F)F)nc23)cc(C)[n+]1[O-]` [Example 2-58, 5-amino-8-(2,6-dimethyl-1-oxido-pyridin-1-ium-4-yl)-7-(4-fluorophenyl)-2-(3,3,3-trifluoropropyl)-[1,2,4]triazolo[4,3-c]pyrimidin-3-one], the Ki is 1000 nM in test [1] and 50.1 nM in test [2].

On to `Cc1cc(-c2c(-c3ccccc3)nc(N)n3c(=O)n(CCNC4CCCC(C(=O)NC5CC5)C4)nc23)cc(C)n1` (stereo not shown) [Example 2-108, 3-[2-[5-amino-8-(2,6-dimethyl-4-pyridyl)-3-oxo-7-phenyl-[1,2,4]triazolo[4,3-c]pyrimidin-2-yl]ethylamino]-N-cyclopropyl-cyclohexanecarboxamide], for which the Ki was greater than 3980 nM in test [1] and 200 nM in test [2].

In the case of `Cc1cc(-c2c(-c3ccccc3)nc(N)n3c(=O)n(CC4CCCCO4)nc23)cc(C)n1` (single isomer, unassigned) [Example 2-82-iso-1, 5-amino-8-(2,6-dimethyl-4-pyridyl)-7-phenyl-2-(tetrahydropyran-2-ylmethyl)-[1,2,4]triazolo[4,3-c]pyrimidin-3-one], the Ki in test [1] is 126 nM; in test [2] it was 1.58 nM.

On to `Cc1cc(-c2c(-c3ccccc3)nc(N)n3c(=O)n(CCCF)nc23)cc(C)n1` [Example 2-8, 5-amino-8-(2,6-dimethyl-4-pyridyl)-2-(3-fluoropropyl)-7-phenyl-[1,2,4]triazolo[4,3-c]pyrimidin-3-one], for which the figures for the Ki in test [1] and in test [2] were 316 nM and 1.58 nM, respectively.

On to `Cc1cc(-c2c(-c3ccc(F)cc3)nc(N)n3c(=O)n(CCC(F)(F)F)nc23)cc(C)n1` [Example 2-33, 5-amino-8-(2,6-dimethyl-4-pyridyl)-7-(4-fluorophenyl)-2-(3,3,3-trifluoropropyl)-[1,2,4]triazolo[4,3-c]pyrimidin-3-one], for which the Ki in test [1] was 631 nM; in test [2] it was 1.26 nM.

As for `Cc1cc(-c2c(-c3ccccc3)nc(N)n3c(=O)n(Cc4ccc(F)c(=O)[nH]4)nc23)cc(C)n1` [Example 1-8, 5-amino-8-(2,6-dimethyl-4-pyridyl)-2-[(5-fluoro-6-oxo-1H-pyridin-2-yl)methyl]-7-phenyl-[1,2,4]triazolo[4,3-c]pyrimidin-3-one], the values for the Ki in test [1] and in test [2] were 316 nM and 25.1 nM, respectively.

Turning to `Cc1cc(-c2c(-c3cccnc3)nc(N)n3c(=O)n(CCC(F)(F)F)nc23)cc(C)n1` [Example 2-39, 5-amino-8-(2,6-dimethyl-4-pyridyl)-7-(3-pyridyl)-2-(3,3,3-trifluoropropyl)-[1,2,4]triazolo[4,3-c]pyrimidin-3-one], the Ki in test [1] is greater than 3980 nM; in test [2], 50.1 nM.

Turning to `CCOc1nc(N)n2c(=O)n(CCC(F)(F)F)nc2c1-c1cc(C)nc(C)c1` [Example 3-3, 5-amino-8-(2,6-dimethyl-4-pyridyl)-7-ethoxy-2-(3,3,3-trifluoropropyl)-[1,2,4]triazolo[4,3-c]pyrimidin-3-one], the values for the Ki in test [1] and in test [2] were greater than 3160 nM and 158 nM, respectively.

For the compound `COC(=O)CCn1nc2c(-c3cc(C)nc(C)c3)c(-c3ccccc3)nc(N)n2c1=O` [Example 2-15, methyl 3-[5-amino-8-(2,6-dimethyl-4-pyridyl)-3-oxo-7-phenyl-[1,2,4]triazolo[4,3-c]pyrimidin-2-yl]propanoate], the Ki in test [1] is 501 nM; in test [2], 5.01 nM.

On to `Cc1cc(-c2c(-c3ccccc3)nc(N)n3c(=O)n(CC4CCCCO4)nc23)cc(CO)n1` (single isomer, unassigned) [Example 2-91-iso-1, 5-amino-8-[2-(hydroxymethyl)-6-methyl-4-pyridyl]-7-phenyl-2-(tetrahydropyran-2-ylmethyl)-[1,2,4]triazolo[4,3-c]pyrimidin-3-one], for which the Ki in test [1] is 631 nM; in test [2], 1.26 nM.

For `Cc1cc(-c2c(-c3ccccc3)nc(N)n3c(=O)n(Cc4cccnn4)nc23)cc(C)n1` [Example 1-5, 5-amino-8-(2,6-dimethyl-4-pyridyl)-7-phenyl-2-(pyridazin-3-ylmethyl)-[1,2,4]triazolo[4,3-c]pyrimidin-3-one], the Ki in test [1] is 251 nM; in test [2], 2.51 nM.

As to `Cc1cc(-c2c(-c3ccc(F)cc3)nc(N)n3c(=O)n(Cc4ccc(Cl)cn4)nc23)cc(CO)n1` [Example 1-62, 5-amino-2-[(5-chloro-2-pyridyl)methyl]-7-(4-fluorophenyl)-8-[2-(hydroxymethyl)-6-methyl-4-pyridyl]-[1,2,4]triazolo[4,3-c]pyrimidin-3-one], the Ki in test [1] is 1000 nM; in test [2], 3.98 nM.

As to `Cc1cc(-c2c(-c3ccccc3)nc(N)n3c(=O)n(CCN(C)C4CCN(c5ccccc5)CC4)nc23)cc(C)n1` [Example 1-93, 5-amino-8-(2,6-dimethyl-4-pyridyl)-2-[2-[methyl-(1-phenyl-4-piperidyl)amino]ethyl]-7-phenyl-[1,2,4]triazolo[4,3-c]pyrimidin-3-one], the Ki in test [1] is 631 nM; in test [2] it was 31.6 nM.

On to `Cc1cc(-c2c(-c3ccccc3)nc(N)n3c(=O)n(CC4CCCS(=O)(=O)C4)nc23)cc(C)n1` (single isomer, unassigned) [Example 2-89-iso-1, 5-amino-8-(2,6-dimethyl-4-pyridyl)-2-[(1,1-dioxothian-3-yl)methyl]-7-phenyl-[1,2,4]triazolo[4,3-c]pyrimidin-3-one], for which the values for the Ki in test [1] and in test [2] were 398 nM and 10 nM, respectively.

Regarding `Cc1cc(-c2c(-c3ccccc3)nc(N)n3c(=O)n(Cc4ccc(F)cn4)nc23)cc(C(F)(F)F)n1` [Example 1-72, 5-amino-2-[(5-fluoro-2-pyridyl)methyl]-8-[2-methyl-6-(trifluoromethyl)-4-pyridyl]-7-phenyl-[1,2,4]triazolo[4,3-c]pyrimidin-3-one], the Ki is 126 nM in test [1] and 2.51 nM in test [2].

On to `Cc1cc(-c2c(-c3ccccc3)nc(N)n3c(=O)n(CC45CC(F)(C4)C5)nc23)cc(CO)n1` [Example 2-59, 5-amino-2-[(3-fluoro-1-bicyclo[1.1.1]pentanyl)methyl]-8-[2-(hydroxymethyl)-6-methyl-4-pyridyl]-7-phenyl-[1,2,4]triazolo[4,3-c]pyrimidin-3-one], for which the Ki in test [1] is 316 nM; in test [2], 3.98 nM.
